From patent US5677282A (Proscript, Inc., priority 1995, dated 1997)
pKi: −log10 of the molar value.

Biological target: stromelysin (Homo sapiens, UniProt P08254)
Experiment: Assay of stromelysin inhibition activity (fluorogenic coumarin peptide substrate)
Assay type: biochemical
Settings: trypsin-activated stromelysin 2 nM, H-150 buffer pH 7.4, room temperature; read-out: Ki(app)
Protocol: Stromelysin was first activated with trypsin. This was done by preparing a reaction mixture in H-150 (H-150 consists of 10 mM CaCl2, 150 mM NaCl and 100 mM HEPES at pH 7.4) containing a final concentration of 25 μg/mL trypsin and 2.2 μM of stromelysin (Marcy et al., Biochemistry,30:6476 (1991); Koklitis et al., Biochem. J., 376:217 (1991). The reaction was incubated for 30 minutes at 37° C. and then quenched by adding trypsin inhibitor agarose to the reaction mixture at a 20 fold excess with respect to trypsin.
The reaction mixture was centrifuged at 14,000 rpm (16,000 ×g) for 30 minutes using an Eppendorf Centrifuge 5415C. The supernant, which contains activated stromelysin, was concentrated with a Centricon 10 (5000 g, 1 hour). A sample was analyzed by Bradford total protein assay and 12% SDS polyacrylamide gel electrophoresis.
All steps of the stromelysin inhibition assay were performed at room temperature. Assay solutions were prepared for each inhibitor tested. Activated stromelysin was added to a stirred covelte to a final concentration of 2 nM in 2 mL of H-150 buffer. 4 μL 5 mM coumarin peptide substrate was dissolved in DMSO and the initial rate of hydrolysis was measured for 100-200 seconds.
Substrate hydrolysis was assessed by fluorescence using a slit width of 10:10, excitation at 328 nm and emission at 393 nm. Ki was calculated based on the assumption of simple competitive inhibition and a substrate concentration much less than Km. 2 μL of 10 mM inhibitor in DMSO was added and the reduction in hydrolysis rate measured. The addition of 2 μL of inhibitor was continued until a 30-70% inhibition was observed.

stromelysin, sequence (P08254 100-477): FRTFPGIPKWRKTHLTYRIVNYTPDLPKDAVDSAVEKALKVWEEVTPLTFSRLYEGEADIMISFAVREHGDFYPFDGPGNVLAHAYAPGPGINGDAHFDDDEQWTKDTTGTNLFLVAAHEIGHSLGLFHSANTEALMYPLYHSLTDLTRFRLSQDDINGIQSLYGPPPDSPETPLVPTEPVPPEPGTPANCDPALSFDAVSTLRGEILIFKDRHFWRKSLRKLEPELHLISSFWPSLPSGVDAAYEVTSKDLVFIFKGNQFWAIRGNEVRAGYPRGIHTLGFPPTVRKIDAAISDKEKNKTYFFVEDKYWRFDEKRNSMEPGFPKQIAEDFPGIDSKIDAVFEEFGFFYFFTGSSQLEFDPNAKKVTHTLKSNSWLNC

Row | Structure (SMILES) | pKi
1 | CC(C)[C@H](NC(=O)[C@H](Cc1cccc2ccccc12)NC(=O)OCc1ccccc1)C(=O)Nc1n[nH]c(=S)s1 | 6.72
2 | CC(C)[C@H](NC(=O)[C@H](Cc1cc(I)c(O)c(I)c1)NC(=O)OCc1ccccc1)C(=O)Nc1n[nH]c(=S)s1 | 7.01
3 | CC(C)(C)[C@H](NC(=O)[C@H](Cc1ccc(OCc2ccccc2)cc1)NC(=O)OCc1ccccc1)C(=O)Nc1n[nH]c(=S)s1 | 7.05
4 | O=C(N[C@@H](Cc1ccc(OCc2ccccc2)cc1)C(=O)N[C@H](C(=O)Nc1n[nH]c(=S)s1)C1CCCCC1)OCc1ccccc1 | 7.15
5 | CC(C)[C@H](NC(=O)[C@@H](NC(=O)OCc1ccccc1)C1CCCCC1)C(=O)Nc1n[nH]c(=S)s1 | 6.74
6 | NCCCC[C@H](NC(=O)OCc1ccccc1)C(=O)N[C@@H](Cc1ccc(OCc2ccccc2)cc1)C(=O)N[C@H](C(=O)Nc1n[nH]c(=S)s1)c1ccccc1 | 5.72
7 | O=C(N[C@@H](Cc1ccc(N(Cc2ccccc2)Cc2ccccc2)cc1)C(=O)NC(C(=O)Nc1n[nH]c(=S)s1)c1ccccc1)OCc1ccccc1 (some centres unmarked) [5(N-benzyloxycarbonyl-(N',N'-dibenzylamino)phenylalanine-phepylglycylamino)-1,3,4-thiadiazole-2-thione] | 6.69
8 | CSCC[C@H](NC(=O)OCC1c2ccccc2-c2ccccc21)C(=O)Nc1n[nH]c(=S)s1 [5-(N-9-fluorenylmethoxycarbonyl)methionylamino)-1,3,4-thiadiazole-2-thione] | 6.71
9 | CSc1ncccc1C(=O)NC(Cc1ccccc1)C(=O)NC(C(=O)Nc1n[nH]c(=S)s1)C(C)C (centres unmarked) [5-(N-(2-methylthionicotyl)phenylalanyl-valyamino)-1,3,4-thiadiazole-2-thione] | 6.04
10 | CC(C)C(NC(=O)C(Cc1ccccc1)NC(=O)c1ccc(OCc2ccccc2)cc1)C(=O)Nc1n[nH]c(=S)s1 (centres unmarked) [5-(N-(4-benzyloxy)benzoyl-phenylalanyl-valylamino)-1,3,4-thiadiazole-2-thione] | 7.21
11 | CC(C)[C@H](NC(=O)[C@H](Cc1ccccc1)NS(=O)(=O)c1cccc2cccnc12)C(=O)Nc1n[nH]c(=S)s1 [5-(N-(8-quinolinesulfonyl)phenylalanyl-valylamino-1,3,4-thiadiazole-2-thione] | 6.27
12 | CC(C)C[C@H](NC(=O)OCC1c2ccccc2-c2ccccc21)C(=O)Nc1n[nH]c(=S)s1 [5-(N-(9-fluorenylmethoxycarbonyl)leucylamino)-1,3,4-thiadiazole-2-thione] | 6.74
13 | O=C(N[C@@H](Cc1c[nH]c2ccccc12)C(=O)Nc1n[nH]c(=S)s1)OCC1c2ccccc2-c2ccccc21 [5-(N-(9-fluorenylmethoxycarbonyl)tryptonylamino)-1,3,4-thiadiazole-2-thione] | 6.47
14 | CCCC(NC(=O)OCC1c2ccccc2-c2ccccc21)C(=O)Nc1n[nH]c(=S)s1 (centres unmarked) [5-(N-(9-fluorenylmethoxycarbonyl-norvalyl)-1,3,4-thiadiazole-2-thione] | 6.29
15 | CC(C)[C@H](NC(=O)[C@H](Cc1ccccc1F)NC(=O)OCc1ccccc1)C(=O)Nc1n[nH]c(=S)s1 [5-(N-Benzyloxycarbonyl-(2-flouro)phenyl-valylamino)-1,3,4-thiadiazole-2-thione] | 6.20
16 | CC[C@H](C)[C@H](NC(=O)OCc1ccccc1)C(=O)N[C@H](C(=O)Nc1n[nH]c(=S)s1)C(C)C [5-(N-Benzyloxycarbonyl-isoleucyl-valylamino)-1,3,4-thiadiazole-2-thione] | 6.03
17 | CC(=O)N[C@@H](CC(C)C)C(=O)N[C@@H](CC(C)C)C(=O)Nc1n[nH]c(=S)s1 [5-(N-acetyl-leucyl-leucylamino)-1,3,4-thiadiazole-2-thione] | 5.19
18 | CC(C)C(NC(=O)C(Cc1ccc(OCc2ccc3ccccc3c2)cc1)NC(=O)OCc1ccccc1)C(=O)Nc1n[nH]c(=S)s1 (centres unmarked) [5-(N-benzyloxycarbonyl((O-methylene-2-naphthyl)tyrosyl)-valylamino)-1,3,4-thiadiazole-2-thione] | 7.21
19 | CC(C)[C@H](NC(=O)[C@H](Cc1ccc(F)cc1)NC(=O)OCc1ccccc1)C(=O)Nc1n[nH]c(=S)s1 [5-(N-benzyloxycarbonyl(para-F)phenylalanyl-valylamino)-1,3,4-thiadiazole-2-thione] | 6.81

Row | Structure (SMILES) | pKi
20 | CC(C)[C@H](NC(=O)[C@H](Cc1ccc2ccccc2c1)NC(=O)OCc1ccccc1)C(=O)Nc1n[nH]c(=S)s1 [5-(N-benzyloxycarbonyl-(2-(2-naphthyl)alanyl-valylamino)-1,3,4-thiadiazole-2-thione] | 6.66
21 | CC(C)(NC(=O)C(Cc1ccc(OCc2ccccc2)cc1)NC(=O)OCc1ccccc1)C(=O)Nc1n[nH]c(=S)s1 (centres unmarked) [5-(N-benzyloxycarbonyl-((O-benzyl)tyrosyl)-amino-isobutyroylamino)-1,3,4-thiadiazole-2-thione] | 6.63
22 | O=C(CC[C@H](NC(=O)OCc1ccccc1)C(=O)NC(C(=O)Nc1n[nH]c(=S)s1)c1ccccc1)NC(c1ccccc1)(c1ccccc1)c1ccccc1 (some centres unmarked) [5-(N-benzyloxycarbonyl-((γ-N-trityl)glutamyl)-phenylglycylamino)-1,3,4-thiadiazole-2-thione] | 7.30
23 | CC(C)[C@H](NC(=O)[C@H](COCc1ccccc1)NC(=O)OCc1ccccc1)C(=O)Nc1n[nH]c(=S)s1 [5-(N-benzyloxycarbonyl-(O-benzyl)seryl-valylamino)-1,3,4-thiadiazole-2-thione] | 6.63
24 | O=C(N[C@@H](Cc1ccccc1F)C(=O)Nc1n[nH]c(=S)s1)OCc1ccccc1 [5-(N-benzyloxycarbonyl-(ortho-fluoro)phenylalanylamino)-1,3,4-thiadiazole-2-thione] | 6.20
25 | O=C(NC(CCC(=O)N(Cc1ccccc1)Cc1ccccc1)C(=O)NC(C(=O)Nc1n[nH]c(=S)s1)c1ccccc1)OCc1ccccc1 (centres unmarked) [5-(N-benzyloxycarbonyl-(γ-N,N-dibenzyl)glutamyl-phenylglycylamino)-1,3,4-thiadiazole2-thione] | 7.72
26 | CSCC[C@H](NC(=O)[C@H](CC(C)C)NC(=O)OCc1ccccc1)C(=O)Nc1n[nH]c(=S)s1 [5-(N-benzyloxycarbonyl-leucyl-methionylamino)-1,3,4-thiadiazole-2-thione] | 6.31
27 | CC(C)C[C@H](NC(=O)OCc1ccccc1)C(=O)N[C@@H](Cc1ccc(O)cc1)C(=O)Nc1n[nH]c(=S)s1 [5-(N-benzyloxycarbonyl-leucyl-tyrosylamino-1,3,4-thiadiazole-2-thione] | 5.89
28 | CC(C)C[C@H](NC(=O)OCc1ccccc1)C(=O)N[C@H](C(=O)Nc1n[nH]c(=S)s1)C(C)C [5-(N-benzyloxycarbonyl-leucyl-valylamino)-1,3,4-thiadiazole-2-thione] | 6.18
29 | CC(C)(C)OC(=O)NCCCC[C@H](NC(=O)OCc1ccccc1)C(=O)N[C@@H](Cc1ccc(OCc2ccccc2)cc1)C(=O)NC(C(=O)Nc1n[nH]c(=S)s1)c1ccccc1 (some centres unmarked) [5-(N-benzyloxycarbonyl-lysyl(N-ε-t-butyloxycarbonyl)-tyrosyl(O-benzyl)-phenylglycylamino-1,3,4-thiadiazole-2-thione] | 6.83
30 | O=C(CNC(=O)[C@H](Cc1ccccc1)NC(=O)OCc1ccccc1)Nc1n[nH]c(=S)s1 [5-(N-benzyloxycarbonyl-phenylalanyl-glycylamino)-1,3,4-thiadiazole-2-thione] | 5.40
31 | CC(C)[C@H](NC(=O)[C@H](Cc1ccccc1)NC(=O)OCc1ccccc1)C(=O)N[C@@H](Cc1c[nH]c2ccccc12)C(=O)Nc1n[nH]c(=S)s1 [5-(N-benzyloxycarbonyl-phenylalanyl-valyl-tryptonylamino)-1,3,4-thiadiazole-2-thione] | 6.56
32 | O=C(N[C@@H](Cc1ccccc1)C(=O)Nc1n[nH]c(=S)s1)OCc1ccccc1 [5-(N-benzyloxycarbonyl-phenylalanylamino)-1,3,4-thiadiazole-2-thione] | 5.63
33 | CC(C)C[C@H](NC(=O)[C@@H]1CCCN1C(=O)OCc1ccccc1)C(=O)N[C@@H](C)C(=O)Nc1n[nH]c(=S)s1 [5-(N-benzyloxycarbonyl-prolyl-leucyl-alanylamino)-1,3,4-thiadiazole-2-thione] | 5.76
34 | O=C(N[C@@H](Cc1c[nH]c2ccccc12)C(=O)Nc1n[nH]c(=S)s1)OCc1ccccc1 [5-(N-benzyloxycarbonyl-tryptonylamino)-1,3,4-thiadiazole-2-thione] | 5.47
35 | CC(C)[C@H](NC(=O)[C@H](Cc1c[nH]c2ccccc12)NC(=O)OCc1ccccc1)C(=O)Nc1n[nH]c(=S)s1 [5-(N-benzyloxycarbonyl-tryptoyl-valylamino)-1,3,4-thiadiazole-2-thione] | 6.13
36 | CC(C)[C@H](NC(=O)[C@H](Cc1ccccc1)NC(=O)CCc1ccccc1)C(=O)Nc1n[nH]c(=S)s1 [5-(N-hydrocinamoyl-phenylalanyl-valylamino-1,3,4-thiadiazole-2-thione] | 6.57
37 | CCCCCCCCC(=O)N[C@@H](Cc1ccccc1)C(=O)N[C@H](C(=O)Nc1n[nH]c(=S)s1)C(C)C [5-(N-nonanoyl-phenylalanyl-valylamino)-1,3,4-thiadiazole-2-thione] | 7.08
38 | CC(C)(C)OC(=O)N[C@@H](CCc1ccccc1)C(=O)Nc1n[nH]c(=S)s1 [5-(N-t-butoxycarbonyl-homophenylalanylamino)-1,3,4-thiadiazole-2-thione] | 4.92
